Reference: patent publication US20170354639A1, “DITERPENOID DERIVATIVES AND METHODS OF USE THEREOF” (Biogen MA Inc., priority 2014, published 2017)
pEC50: −log10 of the molar value.

Molecular target: Nrf2-Keap1 (Homo sapiens, UniProt Q14145)
Test: DiscoveRx PathHunter Nrf2-Keap1 nuclear translocation functional assay (agonist format)
Format: cell-based
Details: in duplicate, agonist mode; for activation at 10 µM: single concentration of 10 μM, normalized to control ligand (CDDO methyl ester) and vehicle; for pEC50: 10 concentrations, 3-fold serial dilutions, 30 μM top concentration, normalized to CDDO methyl ester and vehicle
Procedure: DiscoveRx PathHunter® Nrf2-Keap1 Functional Assay
DiscoveRx's Nrf2-Keapl translocation assay was used to profile compounds. Primary Screening was performed in duplicate at a single concentration of 10 μM and EC50 determinations were performed in duplicate at 10 concentrations with 3-fold serial dilutions at a 30 μM top concentration or an otherwise specified top concentration.
The PathHunter® Nuclear Translocation assay detects translocation of a target protein to, or from, the nucleus. In this system, Prolink™ (PK), a small enzyme fragment, is fused to the protein of interest and Enzyme Acceptor (EA) is localized in the nucleus. Activation of the signaling pathway induces the target protein to either transit into the nucleus, thus forcing complementation of the PK and EA fragments, or out of the nucleus, hindering complementation of the fragments.
Cell handling: PathHunter Pathway cell lines were expanded from freezer stocks according to standard procedures. 5000 cells were seeded in Cell Plating Reagent 0 (containing 1% FBS) to a total volume of 20 μL into white walled, 384-well microplates and incubated for the overnight prior to testing.
Agonist format: For Agonist determination, cells were incubated with sample to induce response. Dilution of sample stocks was performed to generate 100× sample in DMSO. Intermediate dilution of sample stocks was performed to generate 5× sample in assay buffer (Cell Plating Reagent 0 containing 1% FBS). 5 μL of 5× sample was added to cells and incubated at room temperature for 6 hours. Vehicle concentration was 1%.
Signal detection: Assay signal was generated through a single addition of 25 μL (100% v/v) of PathHunter Flash Detection reagent, followed by a one hour incubation at room temperature. Microplates were read following signal generation with a PerkinElmer Envision™ instrument for chemiluminescent signal detection.
Data analysis: Compound activity was analyzed using CBIS data analysis suite (ChemInnovation, CA). For agonist mode assays, percentage activity was calculated using the following formula: % Activity=100%×(mean RLU of test sample−mean RLU of vehicle control)/(mean MAX RLU control ligand−mean RLU of vehicle control). For EC50 determination, a control agonist dose response curve was generated in the Keap 1-Nrf2 biosensor assay, data was normalized to the maximal and minimal response observed in the presence of the control ligand and vehicle respectively. CDDO methyl ester was used as a control compound. Compounds were tested in the agonist mode of the assay and data was normalized to the maximal and minimal response observed in the presence of control ligand and vehicle.

Nrf2-Keap1, sequence (Q14145 whole entry): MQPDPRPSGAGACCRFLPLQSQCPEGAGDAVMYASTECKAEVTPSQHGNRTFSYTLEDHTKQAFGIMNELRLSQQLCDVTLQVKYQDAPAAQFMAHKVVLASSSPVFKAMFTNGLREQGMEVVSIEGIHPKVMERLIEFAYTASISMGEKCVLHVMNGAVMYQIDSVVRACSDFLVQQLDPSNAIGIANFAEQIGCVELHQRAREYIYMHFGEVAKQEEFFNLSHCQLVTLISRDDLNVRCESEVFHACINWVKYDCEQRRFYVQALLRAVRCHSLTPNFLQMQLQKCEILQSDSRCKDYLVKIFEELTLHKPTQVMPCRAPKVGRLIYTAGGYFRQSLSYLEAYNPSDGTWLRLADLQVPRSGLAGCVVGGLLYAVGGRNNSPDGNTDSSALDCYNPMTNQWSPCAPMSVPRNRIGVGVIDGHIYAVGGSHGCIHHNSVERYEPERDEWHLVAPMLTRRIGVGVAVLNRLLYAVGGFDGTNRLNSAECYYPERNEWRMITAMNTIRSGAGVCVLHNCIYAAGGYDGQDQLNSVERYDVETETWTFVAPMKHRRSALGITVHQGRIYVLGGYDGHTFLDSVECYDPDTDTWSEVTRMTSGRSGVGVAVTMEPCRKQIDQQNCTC

SMILES	activation at 10 µM (6 h) [%]	pEC50	activation at 10 µM (6 hours) [%]
C=C1CC[C@@H]2[C@]3(C)COS(=O)O[C@@H]3CC[C@@]2(C)[C@@H]1C/C=C1\C(=O)OC[C@@H]1NC=O (stereo partly drawn) [Example 29, N-((3R,Z)-4-(2-((4aR,6aS,7R,10aS,10bR)-6a,10b-dimethyl-8-methylene-3-oxidodecahydro-1H-naphtho [2,1-d][1,3,2]dioxathiin-7-yl)ethylidene)-5-oxotetrahydrofuran-3-yl)formamide]	51 to 100	–	–
C=C1CC[C@@H]2[C@]3(C)COS(=O)O[C@@H]3CC[C@@]2(C)[C@@H]1C/C=C1\C(=O)OC[C@H]1NC=O (stereo partly drawn) [Example 28, N-((3S,Z)-4-(2-((4aR,6aS,7R,10aS,10bR)-6a,10b-dimethyl-8-methylene-3-oxidodecahydro-1H-naphtho[2,1-d][1,3,2]dioxathiin-7-yl)ethylidene)-5-oxotetrahydrofuran-3-yl)formamide]	51 to 100	–	–
C=C1CC[C@@H]2[C@]3(C)CO[S@](=O)O[C@@H]3CC[C@@]2(C)[C@@H]1C/C=C1/C(=O)OC[C@H]1O [Example 8, (S,E)-3-(2-((3S, 4aR, 6aS, 7R, 10aS, 10bR)-6a,10b-dimethyl-8-methylene-3-oxidodecahydro-1H-naphtho[2,1-d][1,3,2]dioxathiin-7-yl)ethylidene)-4-hydroxydihydrofuran-2(3H)-one]	> 100	5.70 to 6.30	–
C=C1CC[C@H]2[C@@](C)(CC[C@@]3(C)O[S@@](=O)OC[C@@]23C)[C@@H]1C/C=C1/C(=O)OC[C@H]1O [Example 13, (S,E)-4-hydroxy-3-(2-((3S,4aR,6aS,7R,10aS,10bR)-4a,6a,10b-trimethyl-8-methylene-3-oxidodecahydro-1H-naphtho[2,1-d][1,3,2]dioxathiin-7-yl)ethylidene)dihydrofuran-2(3H)-one]	> 100	5.70 to 6.30	–
C=C1CC[C@@H]2[C@]3(C)CO[S@](=O)O[C@@H]3CC[C@@]2(C)[C@@H]1C/C=C1/C(=O)OC[C@@H]1O [Example 10, (R,E)-3-(2-((3S,4aR,6aS,7 R,10aS,10bR)-6a,10b-dimethyl-8-methylene-3-oxidodecahydro-1H-naphtho[2,1-d][1,3,2]dioxathiin-7-yl)ethylidene)-4-hydroxydihydrofuran-2(3H)-one]	51 to 100	–	–
C=C1CC[C@@H]2[C@]3(C)COS(=O)O[C@@H]3CC[C@@]2(C)[C@@H]1C/C=C1/C(=O)OCC1NC(=O)COC (single isomer, unassigned) [Example 40B]	–	5.70 to 6.30	> 100
CC1(C)CCC[C@@]2(C)[C@H]1CCC1(CC1)[C@@H]2CC/C=C1/C(=O)OC[C@H]1NS(C)(=O)=O [Example 37, N—((S,E)-5-oxo-4-(3-((1′S,4a′S,8a′S)-5′,5′,8a′-trimethyloctahydro-1′H-spiro[cyclopropane-1,2′-naphthalen]-1′-yl)propylidene)tetrahydrofuran-3-yl)methanesulfonamide]	30 to 50	–	–
C=C1CC[C@@H]2[C@]3(C)COS(=O)O[C@@H]3CC[C@@]2(C)[C@@H]1C/C=C1/C(=O)OC[C@@H]1NC(=O)OC (single isomer, unassigned) [Example 31]	–	5.70 to 6.30	> 100
C=C1CC[C@@H]2[C@]3(C)COS(=O)O[C@@H]3CC[C@@]2(C)[C@@H]1C/C=C1/C(=O)OC[C@H]1NC(=O)OC (single isomer, unassigned) [Example 30]	–	–	51 to 100
